Results published in US5001118A, “Method for preventing senescence and increasing bone mass” (priority 1986, dated 1991).

How the values were obtained:
[1] = Growth curves (body weight), daily oral administration; assay type: in vivo, mouse (ICR type); conditions: male and female ICR mice, 10, 100, and 1,000 μg/kg.day orally
Method: (§1) Solutions obtained by dissolving the present substance, 24R,25-(OH)2 -D3 in a prescribed concentration in triglyceride of a fatty acid of 8 to 10 carbon atoms containing 1% of ethanol were administered respectively, orally, forcedly and daily to three male-groups and three female-groups of ICR type mice 5 weeks old at dosages of 10, 100, and 1,000 μg/kg.day. The results are compared below with respect to the following items with those obtained of the male- and female-groups using only the solvent without the present substance.

[2] = test system: femurs of male Wister rats; experiment: Fracture test of femurs; assay type: in vivo, rat (Wister); conditions: rat femur, 40 μg/kg orally, 24 months; 20 kg-load cell; control 11.6 ± 2.2
Method: Male Wister rats 4 weeks old were preliminarily kept for 2 weeks. For the subsequent 24 months, the present substance, 24R,25-(OH)2 -D3, was orally administered to the pre-bred rats daily at a dosage of 40 μg/kg.day. Then, the aged rats were sacrificed and their femurs were collected and fractured with an instrument (produced by Iio Denki Co., Ltd. and marketed under trade name of "Rheodynacorder RDR-1500(D)") using a 20 kg-load cell, at a distance of 6.5 mm from the trochanter minor under the condition of a fulcrum interval of 13 mm to determine the power required for the fracture.
As regards the manner of administration, a modified feed was prepared by uniformly dispersing a prescribed amount of the present substance, 24R,25-(OH)2 -D3, in glycine and admixing the resultant dispersing mixture with a marketed feed (produced by Nippon Clea Co., Ltd. under product code of "CE-2") in such a manner as to give a final glycine concentration of 0.5% by weight and the modified feed was consumed by the rats. The administration dosage was calculated on the basis of the actual amount of the feed consumed by the rats.

[3] = test system: femurs and tibias of male Wister rats; experiment: Soft X-ray photographs: volumes of cortical bone and sponge bone; assay type: in vivo, rat (Wister); conditions: 400 μg/kg.day orally, 24 months, vs control
Method: Male Wister rats 4 weeks old were preliminarily kept for two weeks. For the subsequent 24 months, the present substance, 24R,25-(OH)2 -D3, was orally administered daily at a dosage of 400 μg/kg.day to the pre-bred rats. Then, the aged rats were sacrificed and their femurs and tibias were collected in the form with adhering flesh, and soft X-ray photographs thereof were taken with a camera (produced by Soflon Corp. and marketed under product code of "Model NST-1005"). By the obtained photographs the volumes of the cortical bone and the sponge bone were measured. Further, as to a part of the femurs the central portion in the direction of the major axis of the femurs was inspected with a microdensitometer thereby analyzing the picture of pattern of shade concentration to calculate the index by the conventional M.D. method. As regards the manner of administration, a modified feed was prepared by uniformly dispersing a prescribed amount of the present substance, 24R,25-(OH)2 -D3, in glycine and admixing the resultant dispersing mixture with a marketed feed (produced by Nippon Clea Co., Ltd. under product code of "CE-2") in such a ratio as to give a final glycine concentration of 0.5% by weight, and the modified feed was consumed by the rats. To the rats of the control group, the same marketed feed containing 0.5% by weight of glycine was given.

ICR type mice = experiment: Inspection of urine, daily oral administration; assay type: in vivo, mouse (ICR type); design: key: .dwnarw.: Decrease below control; →: No difference from control; .uparw.: Increase above control
Method: as §1

C=C1CC[C@H](O)C/C1=C/C=C1\CCC[C@]2(C)[C@@H]([C@H](C)CC[C@@H](O)C(C)(C)O)CC[C@@H]12 [24R,25-(OH)2 -D3]
change of body weight (growth curves) [1]: absence of a discernible difference | Power for fracture [2]: Out of scale, so large | cortical bone width [3]: increase | lateral diameter, D [3]: increase | trabecula of the sponge bone at epiphysis [3]: increase | Urine ketone body (ICR type mice; female, 10 μg/kg): → | Urine occult blood (ICR type mice; female, 10 μg/kg): → | Urine pH (ICR type mice; female, 10 μg/kg): → | Urine protein (ICR type mice; female, 10 μg/kg): → | Urine sugar (ICR type mice; female, 10 μg/kg): → | Urobilinogen (ICR type mice; female, 10 μg/kg): → | Urine ketone body (ICR type mice; female, 100 μg/kg): → | Urine occult blood (ICR type mice; female, 100 μg/kg): → | Urine pH (ICR type mice; female, 100 μg/kg): → | Urine protein (ICR type mice; female, 100 μg/kg): → | Urine sugar (ICR type mice; female, 100 μg/kg): → | Urobilinogen (ICR type mice; female, 100 μg/kg): → | Urine ketone body (ICR type mice; female, 1000 μg/kg): → | Urine occult blood (ICR type mice; female, 1000 μg/kg): → | Urine pH (ICR type mice; female, 1000 μg/kg): → | Urine protein (ICR type mice; female, 1000 μg/kg): → | Urine sugar (ICR type mice; female, 1000 μg/kg): → | Urobilinogen (ICR type mice; female, 1000 μg/kg): → | Urine ketone body (ICR type mice; male, 10 μg/kg): → | Urine occult blood (ICR type mice; male, 10 μg/kg): → | Urine pH (ICR type mice; male, 10 μg/kg): → | Urine protein (ICR type mice; male, 10 μg/kg): → | Urine sugar (ICR type mice; male, 10 μg/kg): → | Urobilinogen (ICR type mice; male, 10 μg/kg): → | Urine ketone body (ICR type mice; male, 100 μg/kg): → | Urine occult blood (ICR type mice; male, 100 μg/kg): → | Urine pH (ICR type mice; male, 100 μg/kg): → | Urine protein (ICR type mice; male, 100 μg/kg): → | Urine sugar (ICR type mice; male, 100 μg/kg): → | Urobilinogen (ICR type mice; male, 100 μg/kg): → | Urine ketone body (ICR type mice; male, 1000 μg/kg): → | Urine occult blood (ICR type mice; male, 1000 μg/kg): → | Urine pH (ICR type mice; male, 1000 μg/kg): → | Urine protein (ICR type mice; male, 1000 μg/kg): → | Urine sugar (ICR type mice; male, 1000 μg/kg): → | Urobilinogen (ICR type mice; male, 1000 μg/kg): →
